Values quoted from earlier work as cited in patent US4210638A, “Antiviral composition and method of treating virus diseases” (PCR, Inc., priority 1978, dated 1980).

How the values were obtained:
[1] = tested on: Herpes simplex; settings: cited from earlier work
[2] = tested on: uninfected cells; settings: cited from earlier work; for toxicity in culture: cell culture; for toxicity towards uninfected cells compared with deoxyuridine compounds: Greer et al. 1975
[3] = tested on: uridine and thymidine phosphorylase; settings: cited from earlier work
[4] = tested on: recurrent genital Herpes; settings: in vivo; cited from earlier work
[5] = tested on: HSV infections of the eye; settings: cited from earlier work
[6] = tested on: man; settings: extremely high concentrations; cited from earlier work
[7] = tested on: human encephalitis; settings: in vivo; cited from earlier work

Compound | antiviral activity against Herpes simplex in cell culture [1] | toxicity in culture [2] | substrate for catabolic enzymes uridine and thymidine phosphorylase [3] | also measured
C=CCc1cn([C@H]2C[C@H](O)[C@@H](CO)O2)c(=O)[nH]c1=O [5-allyl-2'-deoxyuridine] | do exhibit antiviral activity | non-toxic in culture | substrates for the catabolic enzymes | 
O=c1[nH]c(=O)n([C@H]2C[C@H](O)[C@@H](CO)O2)cc1-c1ccccc1 [5-phenyl-2'-deoxyuridine] | do exhibit antiviral activity | non-toxic in culture | substrates for the catabolic enzymes | 
Nc1ncnc2c1ncn2[C@@H]1O[C@H](COP(=O)(O)O)[C@@H](O)[C@@H]1O [ara-AMP] |  |  |  | effect against recurrent genital Herpes [4]: neither effective against recurrent genital Herpes
CCc1cn([C@H]2C[C@H](O)[C@@H](CO)O2)c(=O)[nH]c1=O [5-ethyl-2'-deoxyuridine] | do exhibit antiviral activity | non-toxic in culture | substrates for the catabolic enzymes | 
O=c1[nH]c(=O)n([C@H]2C[C@H](O)[C@@H](CO)O2)cc1F [5-fluorodeoxyuridine] |  |  |  | antiviral activity against HSV infections of the eye ([5]; Kaufman 1962 / Heidelberger): very little antiviral activity
CNc1cn([C@H]2C[C@H](O)[C@@H](CO)O2)c(=O)[nH]c1=O [5-methyl amino-2'-deoxyuridine] |  | non-toxic in culture | substrates for the catabolic enzymes | 
Cc1cn([C@H]2C[C@H](O)[C@@H](CO)O2)c(=O)nc1N [5-methyl-2'-deoxycytidine] |  |  |  | antiviral activity against HSV infected cells compared with 5-methyl-2'-deoxyuridine ([1]; Lin and Prusoff 1977): less effective
O=C1NC(O)CCN1[C@H]1C[C@H](O)[C@@H](CO)O1 (some centres unmarked) [2'-deoxytetrahydrouridine] |  |  |  | toxicity in man [6]: not toxic in man at extremely high concentrations
Nc1nc(=O)n([C@H]2C[C@H](O)[C@@H](CO)O2)cc1Br [BrdC, 5-bromo-2'-deoxycytidine] |  |  |  | toxicity towards uninfected cells compared with deoxyuridine compounds [2]: substantially less toxic towards uninfected cells
Nc1ncnc2c1ncn2[C@@H]1O[C@H](CO)[C@@H](O)[C@@H]1O [Adenine arabinoside] |  |  |  | incidence of death due to human encephalitis [7]: decrease the incidence of death; effect against recurrent genital Herpes [4]: neither effective against recurrent genital Herpes
CCCc1cn([C@H]2C[C@H](O)[C@@H](CO)O2)c(=O)[nH]c1=O [5-propyl-2'-deoxyuridine] | do exhibit antiviral activity | non-toxic in culture | substrates for the catabolic enzymes | 
Nc1nc(=O)n([C@H]2C[C@H](O)[C@@H](CO)O2)cc1I [IdC, 5-iodo-2'-deoxycytidine] |  |  |  | treatment of Herpes Keratitis in humans compared with IdU ([5]; humans, Kurimoto et al. 1969): more effective; toxicity towards uninfected cells compared with deoxyuridine compounds [2]: substantially less toxic towards uninfected cells
N#CSc1cn([C@H]2C[C@H](O)[C@@H](CO)O2)c(=O)[nH]c1=O [5-thiocyanato-2'-deoxyuridine] | do exhibit antiviral activity | non-toxic in culture | substrates for the catabolic enzymes | 
